Results as given in the supplement of paper PMC10307832.

Key:
Assay in all cases: relative viability (nuclei count vs DMSO), 5 days (fraction); higher = more cells survive
Lapatinib + Pemetrexed = compound: CS(=O)(=O)CCNCc1ccc(-c2ccc3ncnc(Nc4ccc(OCc5cccc(F)c5)c(Cl)c4)c3c2)o1 [Lapatinib] + Nc1nc2[nH]cc(CCc3ccc(C(=O)N[C@@H](CCC(=O)O)C(=O)O)cc3)c2c(=O)[nH]1 [Pemetrexed] (partner 0.2 µM)
In short: (§1)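 After 5 days of treatment, lung cancer cells in 1536-well plates were fixed and stained in a single step (final 0.05% Triton X-100, 1% formaldehyde, 1 ug/ml Hoechst) and their nuclei counted on 4× images. Treatment had been applied by pin tool the day after seeding as one drug alone or as a fixed anchor-drug dose with five library-drug doses (not always all listed) in √10 steps. Relative viability is the nuclei count of treated wells divided by that of vehicle wells, and values are medians of duplicate plates.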

Wnt-C59 + Linsitinib = compound: CC1=NC=CC(=C1)C2=CC=C(C=C2)CC(=O)NC3=CC=C(C=C3)C4=CN=CC=C4 [Wnt-C59] + C[C@]1(O)C[C@@H](c2nc(-c3ccc4ccc(-c5ccccc5)nc4c3)c3c(N)nccn32)C1 [Linsitinib] (partner 1 µM)
In short: as §1

Wnt-C59 + Bortezomib = compound: CC1=NC=CC(=C1)C2=CC=C(C=C2)CC(=O)NC3=CC=C(C=C3)C4=CN=CC=C4 [Wnt-C59] + CC(C)C[C@H](NC(=O)[C@H](Cc1ccccc1)NC(=O)c1cnccn1)B(O)O [Bortezomib] (partner 0.002 µM)
In short: as §1

Wnt-C59 + Pictilisib = compound: CC1=NC=CC(=C1)C2=CC=C(C=C2)CC(=O)NC3=CC=C(C=C3)C4=CN=CC=C4 [Wnt-C59] + CS(=O)(=O)N1CCN(Cc2cc3nc(-c4cccc5[nH]ncc45)nc(N4CCOCC4)c3s2)CC1 [Pictilisib] (partner 1 µM)
In short: as §1

Cell Line	relative viability (Lapatinib + Pemetrexed; first compound 0.02 µM)	relative viability (Lapatinib + Pemetrexed; first compound 0.06325 µM)	relative viability (Lapatinib + Pemetrexed; first compound 0.2 µM)	relative viability (Lapatinib + Pemetrexed; first compound 0.6325 µM)	relative viability (Lapatinib + Pemetrexed; first compound 2 µM)	relative viability (Wnt-C59 + Linsitinib; first compound 0.001 µM)	relative viability (Wnt-C59 + Linsitinib; first compound 0.01 µM)	relative viability (Wnt-C59 + Linsitinib; first compound 0.03162 µM)	relative viability (Wnt-C59 + Linsitinib; first compound 0.1 µM)	relative viability (Wnt-C59 + Bortezomib; first compound 0.001 µM)	relative viability (Wnt-C59 + Bortezomib; first compound 0.01 µM)	relative viability (Wnt-C59 + Bortezomib; first compound 0.03162 µM)	relative viability (Wnt-C59 + Bortezomib; first compound 0.1 µM)	relative viability (Wnt-C59 + Pictilisib; first compound 0.001 µM)	relative viability (Wnt-C59 + Pictilisib; first compound 0.01 µM)	relative viability (Wnt-C59 + Pictilisib; first compound 0.03162 µM)	relative viability (Wnt-C59 + Pictilisib; first compound 0.1 µM)
NCI-H520	0.741	0.636	0.604	0.712	0.489	0.944	0.912	1.1	0.843	0.596	0.611	0.509	0.57	0.247	0.293	0.329	0.291
LXF-289	0.891	0.901	0.884	0.844	0.768	0.99	0.933	1	0.918	0.969	0.965	0.99	1.02	0.767	0.774	0.853	0.794
EPLC-272H	0.342	0.235	0.337	0.288	0.21	1.29	1.23	1.08	1.15	1	0.934	1.03	0.877	0.366	0.265	0.343	0.338
NCI-H838	0.275	0.244	0.258	0.311	0.251	1.07	0.997	1.01	1.04	0.905	0.655	0.739	0.754	0.463	0.516	0.439	0.42
NCI-H2405		0.977		1.04	1.01	1.03		0.887	0.875	0.978	0.962	0.944	0.95	0.433		0.406	0.432
LC-2-ad		0.29	0.264	0.271	0.232	0.864	0.811	0.944	0.776	1.1	1.03	1.11	1.01	0.435	0.43	0.469	0.472
NCI-H3122	0.212	0.199	0.206	0.197	0.193	1.04	0.931	1.02	1.02	0.998	0.972	1.04	0.958	0.61	0.642	0.626	0.518
A-427	0.928	0.949	0.946	1.06	0.963	1.12	1.05	1.14	1.06	0.98	1.01	1	0.979	0.756	0.554	0.717	0.799
201T	0.377	0.288	0.298	0.359	0.326	1.02	1.04	1.06	1.04	1.14	1.08	1.13	1.13	0.704	0.676	0.676	0.698
NCI-H1563	0.651	0.862	0.652	0.843	0.666	1.24	1.2	1.34	1.13	0.863	0.917	0.901	0.835	0.604	0.665	0.721	0.646
SK-LU-1	0.961	0.9	1.02	0.98	0.886	1.01	1.12	1.07	1.03	1.15	1.23	1.28	1.45	0.476	0.558	0.638	0.559
NCI-H1975	0.316	0.298	0.287	0.283	0.284	1.01	0.88	1.01	0.922	0.297	0.372	0.461	0.37	0.282	0.294	0.326	0.282
NCI-H322M	0.648	0.54	0.571	0.575	0.49	1.07	0.775	0.758	0.685	1.25	1.25	1.23	1.12	0.517	0.426	0.491	0.414
RERF-LC-KJ	0.39	0.472	0.466	0.444	0.459	0.914	0.79	0.908	0.85	1.07	1.05	1.22	1.21	0.574	0.543	0.627	0.54
NCI-H23			0.782	0.58	0.529	0.719	0.518	0.579	0.483	1.04	1.07	0.905	0.962	0.426	0.454	0.467	0.423
NCI-H2347		0.421	0.417	0.436	0.504	0.987	0.889	0.98	0.987	0.808	1.12	0.922	1.1	0.628	0.566	0.86	0.634
LCLC-97TM1		0.128	0.184	0.168	0.176	0.182	0.171	0.176	0.156	0.608	0.878	0.761	0.919	0.23	0.231	0.211	0.187
